Laboratory results reported in PubChem BioAssay AID1963974 (Molecular Pharmacology Branch, DTP, NCI, 2024).

Test system: 648629-189-R-J1-PDC spheroids with HUVEC/MSC, viability
Assay: Anticancer human tumor 648629-189-R-J1-PDC patient-derived bladder carcinoma cell line growth inhibition [PI3K]
Conditions: for IC50: curve of first compound; for viability, T/C: stronger effect = lower value
Summary of the method: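 We assembled tumor spheroids that included a stromal compartment of HUVEC and MSCs, then exposed them to targeted agents alone and together with PI3K pathway inhibitors. Concentration series descended by half-log from clinically achievable Cmax levels. Viability served as the endpoint.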

[1] = second compound 0.00316 µM, first compound 0.0316 µM
[2] = second compound 0.00316 µM, first compound 0.1 µM
[3] = second compound 0.00316 µM, first compound 0.316 µM
[4] = second compound 0.00316 µM, first compound 1 µM
[5] = second compound 0.00316 µM, first compound 3.16 µM
[6] = second compound 0.00316 µM, first compound 10 µM
[7] = second compound 0.01 µM, first compound 0.0316 µM
[8] = second compound 0.01 µM, first compound 0.1 µM
[9] = second compound 0.01 µM, first compound 0.316 µM
[10] = second compound 0.01 µM, first compound 1 µM
[11] = second compound 0.01 µM, first compound 3.16 µM
[12] = second compound 0.01 µM, first compound 10 µM
[13] = second compound 0.0316 µM, first compound 0.0316 µM
[14] = second compound 0.0316 µM, first compound 0.1 µM
[15] = second compound 0.0316 µM, first compound 0.316 µM
[16] = second compound 0.0316 µM, first compound 1 µM
[17] = second compound 0.0316 µM, first compound 3.16 µM
[18] = second compound 0.0316 µM, first compound 10 µM
[19] = second compound 0.1 µM, first compound 0.0316 µM
[20] = second compound 0.1 µM, first compound 0.1 µM
[21] = second compound 0.1 µM, first compound 0.316 µM
[22] = second compound 0.1 µM, first compound 1 µM
[23] = second compound 0.1 µM, first compound 3.16 µM
[24] = second compound 0.1 µM, first compound 10 µM
[25] = second compound 0.316 µM, first compound 0.0316 µM
[26] = second compound 0.316 µM, first compound 0.1 µM
[27] = second compound 0.316 µM, first compound 0.316 µM
[28] = second compound 0.316 µM, first compound 1 µM
[29] = second compound 0.316 µM, first compound 3.16 µM
[30] = second compound 0.316 µM, first compound 10 µM
[31] = second compound 1 µM, first compound 0.0316 µM
[32] = second compound 1 µM, first compound 0.1 µM
[33] = second compound 1 µM, first compound 0.316 µM
[34] = second compound 1 µM, first compound 1 µM
[35] = second compound 1 µM, first compound 3.16 µM
[36] = second compound 1 µM, first compound 10 µM
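Also: spheroids exposed to agents for seven days before reading.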
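For viability, T/C in this document: percent of vehicle control luminescence where 100% = DMSO treated spheroids.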

## CC1(C)CCC(CN2CCN(c3ccc(C(=O)NS(=O)(=O)c4ccc(NCC5CCOCC5)c([N+](=O)[O-])c4)c(Oc4cnc5[nH]ccc5c4)c3)CC2)=C(c2ccc(Cl)cc2)C1 + COc1c(OCCCN2CCOCC2)ccc2c3n(c(=NC(=O)c4cnc(N)nc4)nc12)CCN3
Second compound 0.00316 µM
  IC50: > 10 µM
Second compound 0.01 µM
  IC50: > 10 µM
Second compound 0.0316 µM
  IC50: > 10 µM
Second compound 0.1 µM
  IC50: > 10 µM
Second compound 0.316 µM
  IC50: < 0.0316 µM
Second compound 1 µM
  IC50: < 0.0316 µM
[1]
  viability, T/C: 107%
[2]
  viability, T/C: 97.6%
[3]
  viability, T/C: 119%
[4]
  viability, T/C: 108%
[5]
  viability, T/C: 86.5%
[6]
  viability, T/C: 98.2%
[7]
  viability, T/C: 104%
[8]
  viability, T/C: 106%
[9]
  viability, T/C: 106%
[10]
  viability, T/C: 91.2%
[11]
  viability, T/C: 91%
[12]
  viability, T/C: 102%
[13]
  viability, T/C: 97%
[14]
  viability, T/C: 99.8%
[15]
  viability, T/C: 114%
[16]
  viability, T/C: 89.5%
[17]
  viability, T/C: 92.7%
[18]
  viability, T/C: 102%
[19]
  viability, T/C: 65.7%
[20]
  viability, T/C: 68.8%
[21]
  viability, T/C: 65.8%
[22]
  viability, T/C: 63.8%
[23]
  viability, T/C: 59.3%
[24]
  viability, T/C: 58.4%
[25]
  viability, T/C: 24.1%
[26]
  viability, T/C: 22.1%
[27]
  viability, T/C: 23.5%
[28]
  viability, T/C: 19.9%
[29]
  viability, T/C: 23.7%
[30]
  viability, T/C: 19.6%
[31]
  viability, T/C: 4.02%
[32]
  viability, T/C: 3.65%
[33]
  viability, T/C: 4.06%
[34]
  viability, T/C: 3.2%
[35]
  viability, T/C: 3.26%
[36]
  viability, T/C: 2.9%

## Cn1nccc1Nc1nccc(-c2ccn(C(CO)c3ccc(Cl)c(F)c3)c(=O)c2)n1 (stereo not given) + CC(Nc1ccc2c(c1)OCCn1cc(N3C(=O)OCC3C(F)F)nc1-2)C(N)=O
Second compound 0.00316 µM
  IC50: > 10 µM
Second compound 0.01 µM
  IC50: > 10 µM
Second compound 0.0316 µM
  IC50: > 10 µM
Second compound 0.1 µM
  IC50: > 10 µM
Second compound 0.316 µM
  IC50: > 10 µM
Second compound 1 µM
  IC50: > 10 µM
[1]
  viability, T/C: 103%
[2]
  viability, T/C: 105%
[3]
  viability, T/C: 111%
[4]
  viability, T/C: 109%
[5]
  viability, T/C: 109%
[6]
  viability, T/C: 79.3%
[7]
  viability, T/C: 111%
[8]
  viability, T/C: 93%
[9]
  viability, T/C: 102%
[10]
  viability, T/C: 108%
[11]
  viability, T/C: 105%
[12]
  viability, T/C: 81.2%
[13]
  viability, T/C: 107%
[14]
  viability, T/C: 101%
[15]
  viability, T/C: 97.4%
[16]
  viability, T/C: 103%
[17]
  viability, T/C: 106%
[18]
  viability, T/C: 79.1%
[19]
  viability, T/C: 97.2%
[20]
  viability, T/C: 97.5%
[21]
  viability, T/C: 84.9%
[22]
  viability, T/C: 103%
[23]
  viability, T/C: 85.1%
[24]
  viability, T/C: 73%
[25]
  viability, T/C: 82.1%
[26]
  viability, T/C: 86%
[27]
  viability, T/C: 82.7%
[28]
  viability, T/C: 99.8%
[29]
  viability, T/C: 78.3%
[30]
  viability, T/C: 68.8%
[31]
  viability, T/C: 66.2%
[32]
  viability, T/C: 67%
[33]
  viability, T/C: 70.3%
[34]
  viability, T/C: 76.3%
[35]
  viability, T/C: 73%
[36]
  viability, T/C: 62.3%

## CNC(=O)c1ccc(N2C(=S)N(c3ccc(C#N)c(C(F)(F)F)c3)C(=O)C2(C)C)cc1F + COc1c(OCCCN2CCOCC2)ccc2c3n(c(=NC(=O)c4cnc(N)nc4)nc12)CCN3
Second compound 0.00316 µM
  IC50: > 10 µM
Second compound 0.01 µM
  IC50: > 10 µM
Second compound 0.0316 µM
  IC50: > 10 µM
Second compound 0.1 µM
  IC50: > 10 µM
Second compound 0.316 µM
  IC50: < 0.0316 µM
Second compound 1 µM
  IC50: < 0.0316 µM
[1]
  viability, T/C: 107%
[2]
  viability, T/C: 103%
[3]
  viability, T/C: 113%
[4]
  viability, T/C: 116%
[5]
  viability, T/C: 121%
[6]
  viability, T/C: 97.7%
[7]
  viability, T/C: 117%
[8]
  viability, T/C: 108%
[9]
  viability, T/C: 102%
[10]
  viability, T/C: 103%
[11]
  viability, T/C: 107%
[12]
  viability, T/C: 81.1%
[13]
  viability, T/C: 93.7%
[14]
  viability, T/C: 92.2%
[15]
  viability, T/C: 114%
[16]
  viability, T/C: 101%
[17]
  viability, T/C: 98.6%
[18]
  viability, T/C: 84%
[19]
  viability, T/C: 66%
[20]
  viability, T/C: 73.9%
[21]
  viability, T/C: 72.8%
[22]
  viability, T/C: 74.8%
[23]
  viability, T/C: 62.9%
[24]
  viability, T/C: 67.5%
[25]
  viability, T/C: 20.7%
[26]
  viability, T/C: 26.3%
[27]
  viability, T/C: 28.3%
[28]
  viability, T/C: 25.5%
[29]
  viability, T/C: 24.8%
[30]
  viability, T/C: 25.9%
[31]
  viability, T/C: 4.11%
[32]
  viability, T/C: 3.82%
[33]
  viability, T/C: 3.77%
[34]
  viability, T/C: 4.37%
[35]
  viability, T/C: 3.8%
[36]
  viability, T/C: 3.34%

## C#Cc1c(F)ccc2cc(O)cc(-c3ncc4c(N5CC6CCC(C5)N6)nc(OCC56CCCN5CC(F)C6)nc4c3F)c12 (stereo not given) + COc1c(OCCCN2CCOCC2)ccc2c3n(c(=NC(=O)c4cnc(N)nc4)nc12)CCN3
Second compound 0.00316 µM
  IC50: > 10 µM
Second compound 0.01 µM
  IC50: > 10 µM
Second compound 0.0316 µM
  IC50: > 10 µM
Second compound 0.1 µM
  IC50: > 10 µM
Second compound 0.316 µM
  IC50: < 0.0316 µM
Second compound 1 µM
  IC50: < 0.0316 µM
[1]
  viability, T/C: 107%
[2]
  viability, T/C: 100%
[3]
  viability, T/C: 96.5%
[4]
  viability, T/C: 112%
[5]
  viability, T/C: 105%
[6]
  viability, T/C: 94.6%
[7]
  viability, T/C: 112%
[8]
  viability, T/C: 104%
[9]
  viability, T/C: 103%
[10]
  viability, T/C: 113%
[11]
  viability, T/C: 102%
[12]
  viability, T/C: 103%
[13]
  viability, T/C: 89.4%
[14]
  viability, T/C: 91.2%
[15]
  viability, T/C: 85.9%
[16]
  viability, T/C: 92.2%
[17]
  viability, T/C: 79.7%
[18]
  viability, T/C: 91.5%
[19]
  viability, T/C: 67.2%
[20]
  viability, T/C: 61.3%
[21]
  viability, T/C: 58.2%
[22]
  viability, T/C: 60.6%
[23]
  viability, T/C: 65.1%
[24]
  viability, T/C: 57.5%
[25]
  viability, T/C: 24.3%
[26]
  viability, T/C: 21.2%
[27]
  viability, T/C: 18.3%
[28]
  viability, T/C: 19.8%
[29]
  viability, T/C: 17.9%
[30]
  viability, T/C: 5.74%
[31]
  viability, T/C: 3.22%
[32]
  viability, T/C: 2.48%
[33]
  viability, T/C: 2.94%
[34]
  viability, T/C: 3.35%
[35]
  viability, T/C: 3.07%
[36]
  viability, T/C: 0.58%

## C=CC(=O)N1CCN(c2nc(=O)n(-c3c(C)ccnc3C(C)C)c3nc(-c4c(O)cccc4F)c(F)cc23)C(C)C1 (stereo not given) + COc1c(OCCCN2CCOCC2)ccc2c3n(c(=NC(=O)c4cnc(N)nc4)nc12)CCN3
Second compound 0.00316 µM
  IC50: > 10 µM
Second compound 0.01 µM
  IC50: > 10 µM
Second compound 0.0316 µM
  IC50: > 10 µM
Second compound 0.1 µM
  IC50: > 10 µM
Second compound 0.316 µM
  IC50: < 0.0316 µM
Second compound 1 µM
  IC50: < 0.0316 µM
[1]
  viability, T/C: 114%
[2]
  viability, T/C: 108%
[3]
  viability, T/C: 114%
[4]
  viability, T/C: 108%
[5]
  viability, T/C: 119%
[6]
  viability, T/C: 99.9%
[7]
  viability, T/C: 94.3%
[8]
  viability, T/C: 91.3%
[9]
  viability, T/C: 101%
[10]
  viability, T/C: 113%
[11]
  viability, T/C: 115%
[12]
  viability, T/C: 79.1%
[13]
  viability, T/C: 83.4%
[14]
  viability, T/C: 81.9%
[15]
  viability, T/C: 104%
[16]
  viability, T/C: 94.6%
[17]
  viability, T/C: 107%
[18]
  viability, T/C: 87.8%
[19]
  viability, T/C: 57.3%
[20]
  viability, T/C: 64.5%
[21]
  viability, T/C: 63.5%
[22]
  viability, T/C: 79.1%
[23]
  viability, T/C: 81.3%
[24]
  viability, T/C: 77.2%
[25]
  viability, T/C: 18.8%
[26]
  viability, T/C: 22.1%
[27]
  viability, T/C: 29%
[28]
  viability, T/C: 25.5%
[29]
  viability, T/C: 38%
[30]
  viability, T/C: 35.3%
[31]
  viability, T/C: 3.7%
[32]
  viability, T/C: 4.13%
[33]
  viability, T/C: 4.67%
[34]
  viability, T/C: 6.38%
[35]
  viability, T/C: 7.09%
[36]
  viability, T/C: 8.01%
